Laboratory results: patent US12084472B2 (Ardelyx, Inc., priority 2015, dated 2024)

biological target: T1, human TGR5 (Homo sapiens, UniProt Q8TDU6); test: Cell-based TGR5 assay (cAMP generation, HTRF); details: HEK293 cells stably transfected with human TGR5; cAMP by HTRF; 30 minutes at 37° C.; read-out: pEC50 Human TGR5 (converted)
T1 construct: expressed in transfected cells; host or cells: HEK293
T1 sequence (Q8TDU6 1-330): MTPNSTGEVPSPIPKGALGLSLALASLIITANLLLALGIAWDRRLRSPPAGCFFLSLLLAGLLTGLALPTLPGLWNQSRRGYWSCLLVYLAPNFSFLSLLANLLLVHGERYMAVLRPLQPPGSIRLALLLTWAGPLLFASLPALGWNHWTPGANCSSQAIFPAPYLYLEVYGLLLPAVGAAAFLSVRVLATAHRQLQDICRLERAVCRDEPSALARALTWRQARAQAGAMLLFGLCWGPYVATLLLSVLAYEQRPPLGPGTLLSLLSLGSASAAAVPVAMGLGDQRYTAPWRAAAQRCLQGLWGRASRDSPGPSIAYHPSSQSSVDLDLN
How it was run: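 First, compounds in 3-fold serial dilution were placed in HBSS with 10 mM HEPES pH 7.4 and 0.5 mM IBMX. Next, human TGR5-expressing HEK293 cells were added and incubated 30 min at 37° C. Finally, cAMP was detected by HTRF and pEC50 derived by logistic fitting.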

First: CC(C)(CCCc1cc(Cl)c(COC2(c3cnccc3-c3ccccc3OC3CC3)CC2)cc1Cl)C(=O)NC[C@H](O)[C@@H](O)[C@H](O)[C@H](O)CO [Compound I-144, 5-[2,5-dichloro-4-({1-[4-(2-cyclopropoxyphenyl)pyridin-3-yl]cyclopropoxy}methyl)phenyl]-2,2-dimethyl-N-[(2S,3R,4R,5R)-2,3,4,5,6-pentahydroxyhexyl]pentanamide]
Second: O=C(CCCCc1ccc(Cl)c(COC2(c3cnccc3-c3ccccc3OC3CC3)CC2)c1)NC[C@H](O)[C@@H](O)[C@H](O)[C@H](O)CO (stereo in doubt) [Compound I-231, 5-[4-chloro-3-({1-[4-(2-cyclopropoxyphenyl)pyridin-3-yl]cyclopropoxy}methyl)phenyl]-N-[(2S,3R,4R,5R)-2,3,4,5,6-pentahydroxyhexyl]pentanamide]
The EC50 of the first is higher: 126 to 1000 nM for the first, < 100 nM for the second.

First: Cc1ccc(SCCCC(=O)NC[C@H](O)[C@@H](O)[C@H](O)[C@H](O)CO)nc1CNC1(c2cnccc2-c2ccccc2OC2CC2)CC1 [Compound I-653, 4-({6-[({1-[4-(2-cyclopropoxyphenyl)pyridin-3-yl]cyclopropyl}amino)methyl]-5-methylpyridin-2-yl}sulfanyl)-N-[(2S,3R,4R,5R)-2,3,4,5,6-pentahydroxyhexyl]butanamide]
Second: O=C(CCCSc1ccc(Cl)c(CNC2(c3cnccc3-c3ccccc3OC3CC3)CC2)c1)NC[C@H](O)[C@@H](O)[C@H](O)[C@H](O)CO [Compound I-649, 4-({4-chloro-3-[({1-[4-(2-cyclopropoxyphenyl)pyridin-3-yl]cyclopropyl}amino)methyl]phenyl}sulfanyl)-N-[(2S,3R,4R,5R)-2,3,4,5,6-pentahydroxyhexyl]butanamide]
The EC50 of the first is higher: 1260 to 10000 nM for the first, < 100 nM for the second.

`CC(OCc1cc(S(=O)(=O)N(CCCCNC(=O)N[C@@H](CO)[C@@H](O)[C@H](O)[C@H](O)CO)C(C)C)ccc1Cl)c1cnccc1-c1ccccc1OC1CC1` (stereo partly drawn) [Compound I-752, 4-chloro-3-((1-(4-(2-cyclopropoxyphenyl)pyridin-3-yl)ethoxy)methyl)-N-isopropyl-N-(4-(3-((2S,3R,4S,5R)-1,3,4,5,6-pentahydroxyhexan-2-yl)ureido)butyl)benzenesulfonamide] and `CCN(CCCCNC(=O)N[C@@H](CO)[C@@H](O)[C@H](O)[C@H](O)CO)S(=O)(=O)c1ccc(Cl)c(COC2(c3cnccc3-c3ccccc3OC3CC3)CC2)c1` [Compound I-465, 1-{4-[N-ethyl4-chloro-3-({1-[4-(2-cyclopropoxyphenyl)pyridin-3-yl]cyclopropoxy}methyl)benzenesulfonamido]butyl}-3-[(2S,3R,4S,5R)-1,3,4,5,6-pentahydroxyhexan-2-yl]urea] cannot be ordered by EC50: < 100 nM for the first, < 100 nM for the second.

First: CN(CCCSc1ccc(Cl)c(CNC2(c3cnccc3-c3ccccc3OC3CC3)CC2)c1)C(=O)[C@@H](O)[C@@H](O)[C@H](O)[C@@H](O)CO [Compound I-511, (2S,3S,4R,5S)-N-[3-({4-chloro-3-[({1-[4-(2-cyclopropoxyphenyl)pyridin-3-yl]cyclopropyl}amino)methyl]phenyl}sulfanyl)propyl]-2,3,4,5,6-pentahydroxy-N-methylhexanamide]
Second: Cc1ccc(SCCCN(C(=O)[C@@H](O)[C@@H](O)[C@H](O)[C@@H](O)CO)C2CCOCC2)cc1CNC1(c2cnccc2-c2ccccc2OC2CC2)CC1 [Compound I-547, (2S,3S,4R,5S)-N-[3-({3-[({1-[4-(2-cyclopropoxyphenyl)pyridin-3-yl]cyclopropyl}amino)methyl]-4-methylphenyl}sulfanyl)propyl]-2,3,4,5,6-pentahydroxy-N-(oxan-4-yl)hexanamide]
The EC50 of the first is lower: < 100 nM for the first, 1260 to 10000 nM for the second.

`CC(CCCC(=O)O)c1ccc(Cl)c(CNC2(c3cnccc3-c3ccccc3OC3CC3)CC2)c1` (single isomer, unassigned) [Compound I-248] and `CC(CCCN(C(=O)[C@@H](O)[C@@H](O)[C@H](O)[C@@H](O)CO)C1CCS(=O)(=O)CC1)c1ccc(Cl)c(CNC2(c3cnccc3-c3ccccc3OC3CC3)CC2)c1` (stereo partly drawn) [Compound I-295, (2S,3S,4R,5S)-N-(4-{4-chloro-3-[({1-[4-(2-cyclopropoxyphenyl)pyridin-3-yl]cyclopropyl}amino)methyl]phenyl}pentyl)-N-(1,1-dioxo-1λ^6-thian-4-yl)-2,3,4,5,6-pentahydroxyhexanamide] cannot be ordered by EC50: < 100 nM for the first, < 100 nM for the second.

First: CC(=O)N(CCSc1ccc(Cl)c(COC2(c3cnccc3-c3ccccc3OC3CC3)CC2)c1)C[C@H](O)[C@@H](O)[C@H](O)[C@H](O)CO [Compound I-505, N-(2-{[4-chloro-3-({1-[4-(2-cyclopropoxyphenyl)pyridin-3-yl]cyclopropoxy}methyl)phenyl]sulfanyl}ethyl)-N-[(2S,3R,4R,5R)-2,3,4,5,6-pentahydroxyhexyl]acetamide]
Second: CS(=O)(=O)NCCCN(CCCSc1ccc(Cl)c(COC2(c3cnccc3-c3ccccc3OC3CC3)CC2)c1)C(=O)[C@@H](O)[C@@H](O)[C@H](O)[C@@H](O)CO [Compound I-592, (2S,3S,4R,5S)-N-(3-{[4-chloro-3-({1-[4-(2-cyclopropoxyphenyl)pyridin-3-yl]cyclopropoxy}methyl)phenyl]sulfanyl}propyl)-2,3,4,5,6-pentahydroxy-N-(3-methanesulfonamidopropyl) hexanamide]
The EC50 of the first is lower: < 100 nM for the first, 126 to 1000 nM for the second.

`O=C(CCCCc1cc(Cl)c(COC2(c3cnccc3-c3ccccc3OC3CC3)CC2)cc1Cl)NCCN1CCN(CC(=O)NC[C@H](O)[C@@H](O)[C@H](O)[C@H](O)CO)CC1` [Compound I-99, 5-[2,5-dichloro-4-({1-[4-(2-cyclopropoxyphenyl)pyridin-3-yl]cyclopropoxy}methyl)phenyl]-N-{2-[4-({[(2S,3R,4R,5R)-2,3,4,5,6-pentahydroxyhexyl]carbamoyl}methyl)piperazin-1-yl]ethyl}pentanamide] and `NS(=O)(=O)CCN(CCCCc1cc(Cl)c(COC2(c3cnccc3-c3ccccc3OC3CC3)CC2)cc1Cl)C(=O)[C@H](O)[C@@H](O)[C@H](O)[C@H](O)CO` [Compound I-84, (2R,3S,4R,5R)-N-{4-[2,5-dichloro-4-({1-[4-(2-cyclopropoxyphenyl)pyridin-3-yl]cyclopropoxy}methyl)phenyl]butyl}-2,3,4,5,6-pentahydroxy-N-(2-sulfamoylethyl)hexanamide] cannot be ordered by EC50: < 100 nM for the first, < 100 nM for the second.

`Clc1cccc(COC2(c3cnccc3-c3ccccc3OC3CC3)CC2)c1Cl` [Compound I-47, 4-(2-cyclopropoxyphenyl)-3-{1-[(2,3-dichlorophenyl)methoxy]cyclopropyl}pyridine] and `NCCOCCNS(=O)(=O)c1ccc(Cl)c(COC2(c3cnccc3-c3ccccc3OC3CC3)CC2)c1` [Compound I-399, N-[2-(2-aminoethoxy)ethyl]-4-chloro-3-({1-[4-(2-cyclopropoxyphenyl)pyridin-3-yl]cyclopropoxy}methyl)benzene-1-sulfonamide] fall in the same range of EC50: 126 to 1000 nM for the first, 126 to 1000 nM for the second.

Compared with `Clc1ccc(Cl)c(CNC2(c3cnccc3-c3ccccc3Cl)CC2)c1` [Compound I-16, 1-[4-(2-chlorophenyl)pyridin-3-yl]-N-[(2,5-dichlorophenyl)methyl]cyclopropan-1-amine], `Cc1ccc(C(C)CCCN(C(=O)[C@@H](O)[C@@H](O)[C@H](O)[C@@H](O)CO)C2CCS(=O)(=O)CC2)cc1CNC1(c2cnccc2-c2ccccc2OC2CC2)CC1` (stereo partly drawn) [Compound I-306, (2S,3S,4R,5S)-N-(4-{3-[({1-[4-(2-cyclopropoxyphenyl)pyridin-3-yl]cyclopropyl}amino)methyl]-4-methylphenyl}pentyl)-N-(1,1-dioxo-1λ^6-thian-4-yl)-2,3,4,5,6-pentahydroxyhexanamide] is lower in EC50: 1260 to 10000 nM for the first, < 100 nM for the second.
